Experimental data reported in the supplement of paper PMC10307832.

How the values were obtained:
Assay in all cases: relative viability (nuclei count vs DMSO), 5 days (fraction); higher = more cells survive
[1] = compound: COc1ncc(-c2ccc3nccc(-c4ccnnc4)c3c2)cc1NS(=O)(=O)c1ccc(F)cc1F [Omipalisib] + CC(=O)c1c(C)c2cnc(Nc3ccc(N4CCNCC4)cn3)nc2n(C2CCCC2)c1=O [Palbociclib] (partner 0.5 µM)
Procedure, shortened: (§1)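 The day after seeding in 1536-well plates, lung cancer cell lines were treated by pin tool with a single drug, or with a fixed anchor-drug dose together with five library-drug doses (not always all listed) in √10 steps. After 5 days, a combined fix-and-stain solution (final 0.05% Triton X-100, 1% formaldehyde, 1 ug/ml Hoechst) was added. Nuclei counted on 4× images gave relative viability as treated counts over vehicle counts, reported as the median of duplicate plates.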

[2] = compound: COc1ncc(-c2ccc3nccc(-c4ccnnc4)c3c2)cc1NS(=O)(=O)c1ccc(F)cc1F [Omipalisib] + COc1cc2c(Oc3ccc(NC(=O)C4(C(=O)Nc5ccc(F)cc5)CC4)cc3F)ccnc2cc1OCCCN1CCOCC1 [Foretinib] (partner 0.25 µM)
Procedure, shortened: as §1

[3] = compound: COc1ncc(-c2ccc3nccc(-c4ccnnc4)c3c2)cc1NS(=O)(=O)c1ccc(F)cc1F [Omipalisib] + COc1cccc2cc(-c3nc([C@H]4CC[C@H](C(=O)O)CC4)n4ncnc(N)c34)[nH]c12 [OSI-027] (partner 0.5 µM)
Procedure, shortened: as §1

[4] = compound: COc1ncc(-c2ccc3nccc(-c4ccnnc4)c3c2)cc1NS(=O)(=O)c1ccc(F)cc1F [Omipalisib] + C[C@@H](Oc1cc(-c2cnn(C3CCNCC3)c2)cnc1N)c1c(Cl)ccc(F)c1Cl [Crizotinib] (partner 1 µM)
Procedure, shortened: as §1

[5] = compound: COc1ncc(-c2ccc3nccc(-c4ccnnc4)c3c2)cc1NS(=O)(=O)c1ccc(F)cc1F [Omipalisib] + Cc1nc(Nc2ncc(C(=O)Nc3c(C)cccc3Cl)s2)cc(N2CCN(CCO)CC2)n1 [Dasatinib] (partner 0.075 µM)
Procedure, shortened: as §1

[6] = compound: COc1ncc(-c2ccc3nccc(-c4ccnnc4)c3c2)cc1NS(=O)(=O)c1ccc(F)cc1F [Omipalisib] + Nc1nc2[nH]cc(CCc3ccc(C(=O)N[C@@H](CCC(=O)O)C(=O)O)cc3)c2c(=O)[nH]1 [Pemetrexed] (partner 0.2 µM)
Procedure, shortened: as §1

| Cell Line | relative viability ([1]; first compound 0.0003 µM) | relative viability ([1]; first compound 0.003 µM) | relative viability ([1]; first compound 0.03 µM) | relative viability ([2]; first compound 0.0003 µM) | relative viability ([2]; first compound 0.003 µM) | relative viability ([2]; first compound 0.03 µM) | relative viability ([3]; first compound 0.0003 µM) | relative viability ([3]; first compound 0.003 µM) | relative viability ([3]; first compound 0.03 µM) | relative viability ([4]; first compound 0.0003 µM) | relative viability ([4]; first compound 0.003 µM) | relative viability ([4]; first compound 0.03 µM) | relative viability ([5]; first compound 0.0003 µM) | relative viability ([5]; first compound 0.003 µM) | relative viability ([5]; first compound 0.03 µM) | relative viability ([6]; first compound 0.0003 µM) | relative viability ([6]; first compound 0.003 µM) | relative viability ([6]; first compound 0.03 µM) |
| --- | --- | --- | --- | --- | --- | --- | --- | --- | --- | --- | --- | --- | --- | --- | --- | --- | --- | --- |
| LXF-289 | 0.62 | 0.574 | 0.416 | 0.977 | 0.912 | 0.626 | 0.764 | 0.493 | 0.357 | 0.846 | 0.924 | 0.712 | 0.235 | 0.119 | 0.0562 | 0.938 | 1.05 | 0.804 |
| NCI-H661 | 0.403 | 0.363 | 0.313 | 1.06 | 0.999 | 0.783 | 0.661 | 0.582 | 0.344 | 0.969 | 0.94 | 0.703 | 0.822 | 0.573 | 0.312 | 0.925 | 0.9 | 0.761 |
| NCI-H358 | 0.148 | 0.139 | 0.131 | 0.626 | 0.591 | 0.371 | 0.595 | 0.473 | 0.16 | 0.502 | 0.6 | 0.303 | 0.127 | 0.11 | 0.131 | 0.182 | 0.164 | 0.131 |
| HOP-62 | 0.468 | 0.426 | 0.292 | 1.09 | 1.1 | 0.946 | 0.93 | 0.56 | 0.576 | 0.817 | 1 | 0.693 | 0.629 | 0.458 | 0.27 | 0.286 | 0.354 | 0.302 |
| NCI-H1993 | 0.547 | 0.391 | 0.393 | 0.805 | 0.633 | 0.594 | 0.48 | 0.597 | 0.621 | 0.83 | 0.618 | 0.63 | 0.498 | 0.545 | 0.486 | 0.529 | 0.478 | 0.513 |
| A-427 | 0.501 | 0.49 | 0.455 | 0.865 | 1.01 | 0.718 | 0.48 | 0.281 | 0.377 | 0.818 | 0.736 | 0.639 | 0.686 | 0.434 | 0.625 | 0.983 | 0.922 | 0.931 |
| 201T | 0.325 | 0.343 | 0.27 | 1.12 | 0.864 | 0.308 | 0.786 | 0.494 | 0.398 | 0.988 | 1.05 | 0.731 | 0.582 | 0.413 | 0.323 | 0.342 | 0.309 | 0.266 |
| SK-LU-1 | 0.387 | 0.329 | 0.306 | 0.869 | 0.662 | 0.479 | 0.373 | 0.207 | 0.183 | 0.91 | 0.712 | 0.515 | 0.175 | 0.121 | 0.109 | 1.04 | 0.834 | 0.751 |
| NCI-H1651 | 0.464 | 0.401 | 0.294 | 0.664 | 0.497 | 0.489 | 0.55 | 0.632 | 0.482 | 0.749 | 0.762 | 0.569 | 0.342 | 0.297 | 0.272 | 0.55 | 0.506 | 0.433 |
| LC-2-ad | 0.488 | 0.458 | 0.299 | 0.961 | 0.743 | 0.411 | 0.732 | 0.501 | 0.439 | 0.478 | 0.395 | 0.253 | 0.503 | 0.47 | 0.168 | 0.279 | 0.26 | 0.275 |
| NCI-H1734 | 0.278 | 0.238 | 0.205 | 0.754 | 0.446 | 0.268 | 0.561 | 0.275 | 0.239 | 0.574 | 0.38 | 0.213 | 0.396 | 0.243 | 0.194 | 0.419 | 0.431 | 0.402 |
| COR-L 105 | 0.406 | 0.432 | 0.415 | 1.17 | 1.01 | 0.896 | 0.767 | 0.549 | 0.328 | 0.799 | 0.779 | 0.558 | 0.301 | 0.287 | 0.186 | 0.995 | 1.11 | 0.942 |
| EKVX | 0.301 | 0.326 | 0.182 | 0.649 | 0.801 | 0.183 | 0.612 | 0.371 | 0.256 | 0.934 | 0.824 | 0.402 | 0.398 | 0.302 | 0.175 | 0.491 | 0.437 | 0.264 |
| NCI-H838 | 0.221 | 0.184 | 0.146 | 0.953 | 0.703 | 0.375 | 0.335 | 0.345 | 0.181 | 0.767 | 0.57 | 0.354 | 0.263 | 0.223 | 0.23 | 0.25 | 0.229 | 0.214 |
| LOU-NH91 | 0.586 | 0.536 | 0.52 | 0.901 | 0.838 | 0.564 | 0.705 | 0.58 | 0.503 | 0.737 | 0.65 | 0.504 | 0.521 | 0.381 | 0.355 | 0.408 | 0.431 | 0.448 |
| NCI-H2347 | 0.393 | 0.432 | 0.4 | 0.905 | 0.699 | 0.454 | 0.345 | 0.262 | 0.959 | 0.827 | 0.685 | 0.293 | 0.286 | 0.253 | 0.26 | 0.45 | 0.484 | 0.445 |
